These results are taken from PubChem BioAssay (NCI).

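Grown in 96-well plates, cells were treated for 48 hours with each compound at five concentrations. Insufficient inhibition: endpoint recorded as highest concentration tested. Definition used: TGI = concentration required for complete inhibition of growth.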

Test in all cases: growth of human tumour cells (NCI), 48 h
Test [1] has as its system MDA-MB-231 breast.
Test [2] deals with OVCAR-3 ovarian.
For test [3], the system named is LOX IMVI melanoma.
For test [4], the system named is UACC-62 melanoma.
Test [5] deals with BT-549 breast.
Test [6] concerns MOLT-4 leukemia.
Test [7] has as its system SK-MEL-2 melanoma.
Test [8] relates to SF-295 CNS.
The subject of test [9] is CCRF-CEM leukemia.
Test [10] relates to SW-620 colon.
Test [11] concerns SNB-19 CNS.
In test [12] the test system is HT29 colon.

As to `CCCCC1Cc2cc(O)ccc2-c2n1c1cc(O)ccc1[n+]2C` (configuration not stated) (tested in a mixture with another compound), the TGI in [1] is over 100 µM; in test [2], 98.7 µM; in [3], over 100 µM; in test [4], over 81.5 µM; in [5], over 100 µM; in test [6], over 100 µM. Further, the TGI in test [7] was over 100 µM; in test [8], over 60.1 µM; in [9] it was over 100 µM; in test [10], over 100 µM; in [11] it was over 39.8 µM; in test [12] it was over 100 µM.

For `C1CNCCN2CCCNCCN(C1)CC2`, the TGI in test [1], in test [2], in [3], in test [4], in [5] and in test [6] was over 100 µM each time. The TGI in [7] is over 100 µM; in test [8], over 100 µM; in test [9] it was 37.9 µM; in test [10], over 100 µM; in test [11], over 100 µM; in test [12] it was over 100 µM.

With `c1ccc(Cc2cccc3cc(-c4ccc(-c5ccccc5)cc4)[nH]c23)cc1`, the TGI in test [1], in [2], in test [3], in [4], in test [5] and in [6] was over 100 µM throughout. In addition, the TGI in [7], in [8], in [9], in test [10], in test [11] and in [12] was over 100 µM throughout.

Regarding `CCN(CC)CC(O)c1ccc2ccc3ccccc3c2c1` (configuration not stated), the TGI worked out at 28.4 µM in [1]; 29.1 µM in test [2]; 35.5 µM in test [3]; 29.1 µM in [4]; 30.5 µM in test [5]; 32.9 µM in test [6]. Also, the TGI in test [7] came out at 30.9 µM; in [8], 28.9 µM; in [9], 45.3 µM; in test [10], 34.9 µM; in [11], 29.5 µM; in test [12], 25.2 µM.

For the compound `Clc1cc2nc(C3CCCO3)[nH]c2cc1Cl` (configuration not stated), the TGI in test [1] was over 100 µM; in [2] it was over 100 µM; in [3] it was over 100 µM; in test [4], over 100 µM; in test [5], 91.3 µM; in test [6], over 100 µM. Besides, the TGI in test [7], in [8], in test [9], in [10], in test [11] and in test [12] was over 100 µM in each case.

Regarding `COC(=O)C12CCC(C(=O)OC)(Cc3c(c4ccccc4n3S(=O)(=O)c3ccccc3)C1)C2=O` (configuration not stated), the TGI in test [1], in test [2], in test [3], in test [4], in test [5] and in test [6] was over 100 µM in each case. Moreover, the TGI in test [7] was over 100 µM; in [8] it was over 100 µM; in test [9] it was over 100 µM; in [10], over 100 µM; in test [11], over 100 µM; in test [12], over 81 µM.

Take `CCOC(=O)C(SCCO)C(C(=O)OCC)n1ccc(N)nc1=O` (configuration not stated): the TGI in test [1], in test [2], in [3], in test [4], in test [5] and in test [6] was over 100 µM in each case. Also, the TGI in test [7], in test [8], in test [9], in [10], in test [11] and in [12] was over 100 µM in each case.

On to `C/C(Cl)=N\OC(=O)Nc1ccc([N+](=O)[O-])cc1`, for which the TGI is 37.1 µM in test [1]; 6.1 µM in test [2]; 9.93 µM in [3]; 48.6 µM in test [4]; 66.7 µM in test [5]; 3.97 µM in test [6]. The TGI in [7] was 32.5 µM; in test [8], 31.8 µM; in [9] it was over 100 µM; in test [10], 4.06 µM; in test [11], 33.1 µM; in test [12] it was 38.7 µM.

Consider `CS(C)(=O)=N/C=C\C(=O)C(Cl)(Cl)Cl`, for which the TGI in [1], in test [2], in test [3], in test [4], in test [5] and in test [6] was over 100 µM throughout. For the same compound, the TGI in test [7], in [8], in test [9], in test [10], in [11] and in test [12] was over 100 µM in each case.

`C=CCCCCOC1C=CC(OC(C)=O)C(COC(C)=O)O1` (configuration not stated): the TGI in test [1], in [2], in [3], in test [4], in test [5] and in test [6] was over 100 µM in each case. The TGI in test [7], in test [8], in [9], in test [10], in test [11] and in test [12] was over 100 µM throughout.

For `NC(=O)c1cnc2sc3ccccc3n2c1=O`, the TGI in [1], in test [2], in test [3], in test [4], in [5] and in test [6] was over 100 µM each time. Further, the TGI in test [7], in test [8], in [9], in test [10], in test [11] and in test [12] was over 100 µM each time.

For the compound `CCN(CC)CCN1c2ccccc2Sc2ccc3ccccc3c21`, the TGI in test [1] stood at 18.3 µM; in test [2], 24.6 µM; in test [3] it was 21.4 µM; in test [4], 22 µM; in test [5], 29.9 µM; in test [6], 7.66 µM. Moreover, the TGI in [7] was determined as 27.9 µM; in test [8], 26.4 µM; in test [9], 15 µM; in test [10], 24.4 µM; in test [11], 29.6 µM; in test [12], 12.3 µM.

As to `O=C(Nc1ccc(Cl)cc1)c1cc(S(=O)(=O)Nc2n[nH]c(=O)[nH]2)c(SSc2cc(Cl)c(C(=O)Nc3ccc(Cl)cc3)cc2S(=O)(=O)Nc2n[nH]c(=O)[nH]2)cc1Cl`, the TGI in [1], in test [2], in test [3], in [4], in [5] and in test [6] was over 100 µM throughout. The TGI in test [7], in [8], in test [9], in test [10], in test [11] and in test [12] was over 100 µM in each case.

In the case of `Cc1csc2c(P(=O)(OC(C)C)OC(C)C)c(-c3ccccc3)cn12`, the TGI was found to be 41.1 µM in [1]; 28.2 µM in test [2]; 27.3 µM in test [3]; 20 µM in test [4]; 36 µM in [5]; 31.4 µM in [6]. Also, the TGI was 32.5 µM in test [7]; 31.1 µM in [8]; 37.2 µM in [9]; 35.8 µM in test [10]; 28.4 µM in [11]; 29.2 µM in test [12].

`COC(=O)N1CC[C@@H]2CCC=C(c3cccc4c3OCO4)[C@@H]21`: the TGI in [1], in [2], in [3], in [4], in test [5] and in [6] was over 100 µM in each case. Further, the TGI in test [7], in test [8], in [9], in test [10], in [11] and in test [12] was over 100 µM throughout.

As for `CC1=C(C)C(=O)OC(C(C)(O)C2(O)CCC3(O)C4CC(Cl)C5(O)C(O)C=CC(=O)C5(C)C4CCC32C)C1` (configuration not stated), the TGI is over 100 µM in test [1]; over 100 µM in test [2]; 46.4 µM in test [3]; over 100 µM in [4]; over 100 µM in test [5]; 32.8 µM in test [6]. Also, the TGI is over 100 µM in test [7]; over 100 µM in test [8]; 53.4 µM in test [9]; 59.1 µM in test [10]; over 100 µM in test [11]; over 100 µM in test [12].

As to `O=C1C(NS(=O)(=O)c2ccccc2)=C(n2cnc3ccccc32)C(=O)c2ccccc21`, the TGI in test [1], in test [2], in [3], in test [4], in [5] and in test [6] was over 100 µM each time. The TGI in test [7], in [8], in test [9], in test [10], in test [11] and in test [12] was over 100 µM throughout.

As to `COc1cc(/C=C2\C(=O)N(c3cccc(Cl)c3)C(c3ccccc3)S2(=O)=O)cc(OC)c1OC` (configuration not stated), the TGI was over 100 µM in test [1]; over 100 µM in test [2]; 97.2 µM in test [3]; over 100 µM in test [4]; over 100 µM in [5]; 98.8 µM in [6]. The TGI in test [7] was over 100 µM; in test [8], over 100 µM; in test [9], 71.8 µM; in test [10], over 100 µM; in [11], over 100 µM; in test [12], over 100 µM.

Take `C=C1CC(OC(C)=O)/C=C(/C)CCC(C(C)(C)O)CC1O` (configuration not stated): the TGI in [1], in [2], in test [3], in [4], in test [5] and in test [6] was over 100 µM throughout. In addition, the TGI in test [7], in [8], in test [9], in [10], in test [11] and in [12] was over 100 µM throughout.

Take `CCCS(=O)(=O)O`: the TGI in test [1], in [2], in [3], in test [4], in [5] and in test [6] was over 100 µM each time. Besides, the TGI in [7], in [8], in test [9], in test [10], in test [11] and in test [12] was over 100 µM each time.

On to `CCCCCCCCCc1cc(O)c(O)cc1CCCCCCCCC`, for which the TGI in [1], in test [2], in test [3], in test [4], in test [5] and in [6] was over 10 µM throughout. For the same compound, the TGI in test [7], in [8], in test [9], in test [10], in test [11] and in test [12] was over 10 µM each time.
